{"source": "patent US20220211681A1", "about": "“COMPOSITIONS AND METHODS FOR PREVENTING INFLAMMATORY CONDITIONS” (Trustees of Tufts College, priority 2019, published 2022)", "key": {"[1]": {"test_system": "IL-6", "test": "Plasma IL-6 by V-PLEX Proinflammatory Panel 1 (mouse) Kit", "format": "in vivo, FVB mice", "details": "vs obese control; combination p=0.07", "description": "(§1) Frozen fecal samples obtained in the colon upon euthanasia and then measured by Mouse S100A8/S100A9 Heterodimer DuoSet ELISA according to manufacturer's instructions (R&D Systems, Minneapolis, Minn.) and normalized by protein concentrations. Data are shown as the mean±SE, Different superscript letters in the bar charts indicate significant differences (p<0.05) by one-way analysis of variance (ANOVA) with Tukey's test.\n(§2) Determination of pro-inflammatory cytokines in plasma and calprotectin in feces: Plasma samples were then used for determination IL-1β, IL-6, and TNT-α concentrations by V-PLEX Proinflammatory Panel 1 (mouse) Kit on a chemiluminescence platform (MesoScale Discovery (MSD), Rockville, Md., USA) according to the manufacturer's instructions. For fecal calprotectin measures, frozen fecal samples obtained in the colon upon euthanasia were lysed in ice-cold PBS containing 1% BSA, 0.05% Tween20 and protease inhibitor. Protein concentrations were determined using the BCA method. Fecal calprotectin levels were measured by Mouse S100A8/S100A9 Heterodimer DuoSet ELISA according to manufacturer's instructions (R&D Systems, Minneapolis, Minn.) and normalized by protein concentrations."}, "[2]": {"test_system": "colonic tumors", "test": "Colonic tumorigenesis in HFD-fed, AOM-treated FVB mice", "format": "in vivo", "description": "Animals, diet and dosage information: The animal protocol was approved by the Institutional Animal Care and Use Committee of Tufts University (42015-155). Male FVB mice (4 weeks old) were obtained from the Jackson Laboratory (Bar Harbor, Me., USA), and were given free access to food (AIN-93G) and water for one week. The high-fat diet (HFD, D12450B) and low-fat diet (LFD, D12492) contained 60% and 10% of their calories as lard, respectively (Research Diets, diet details: Supplementary Tables 1, 2). […] One week after the sixth AOM injection, mice were randomized to receive 1 of 5 experimental diets: 1) LFD control, 2) […], 3) HFD containing 0.2% CUR (wt %), […], as pyridoxine HO), and 5) HFD containing both agents […]. There were 21 mice in each group. Body composition was determined by Echo-900 MRI (Houston, Tex., USA) at 21 weeks after arrival. All mice were sacrificed by isoflurane asphyxiation at 22 weeks after arrival. The liver and spleen were collected and weighed.\nThe dose of CUR (0.2 wt %) used in this study is equivalent to approximately 1 g/day for human dietary intake in a 60 kg adult based on equivalent surface area dosage conversion method^(30). The dose of B6 used is at 4-times the basal requirement (supplemented level) for mice. […] The colons were excised, opened longitudinally, rinsed with ice cold PBS containing protease and phosphatase inhibitors (pH 7.4) and carefully inspected under a dissection microscope. The number and size of tumors in the colons were recorded. The sizes of tumors were determined by the following formula: tumor volume (mm^3)=L×W×[(L+W)/2], where L is the length and W is the width of the tumors. Tumors and one 2-3 mm length piece of mid-colon from each mouse were fixed in 10% buffered formalin (pH 7.4) for 24 h for further histopathologic and immunohistochemical (IHC) analysis. The opened colon, spread out on a glass plate sitting atop crushed ice, was then gently scraped using glass microscope slides and the mucosa thus obtained was stored at −80° C. for future analyses. The pathology of the colonic tumors was characterized by a rodent histopathologist at the Harvard Rodent Histopathology Core (Boston, Mass., USA) who was blinded to the diet groups, and the tumors were graded as either non-neoplastic, adenomas or invasive cancers. The tumor data reported below includes only those confirmed to be either adenomas or cancers.\nStatistical analyses: Data are presented as means±standard error (SE) for the indicated number of independently performed experiments. All statistical analyses were performed using SAS Version 9.3 (SAS Institute, Cary, N.C., USA). […] The tumor incidence was statistically calculated using the chi-square test. […]"}, "[3]": {"test_system": "PI3K", "test": "Western blot of p-PI3K/PI3K in colonic mucosa", "format": "in vivo, FVB mice", "description": "(§3) Each lane contained colonic mucosa collected from two individual mice that were pooled for immunoblot analysis (n=6). Data are representative of two independent experiments. Band intensity was normalized to Lamin B1 (nuclear fraction) or β-actin (whole tissue lysate) and measured by Quantity One 1-D Analysis Software (Bio-Rad). Data are shown as the mean±SE. Multiple comparisons with Hochberg method were employed to control the False Discovery Rate. Different superscript letters in the bar charts indicate significant differences (p<0.05) by one-way analysis of variance (ANOVA) with Tukey's test.\n(§4) Western blot analyses: The nuclear and cytoplasmic fractions were prepared using the Nuclear Extraction Kit (Abeam) according to the manufacturer's instructions and subjected to Western blot analysis. Protein concentrations were determined using the BCA method. Briefly, equal amount of proteins (50 μg) were resolved over 4-12% SDS-polyacrylamide gel electrophoresis and transferred to nitrocellulose membranes. […] Band intensity was normalized to Lamin B1 (nuclear fraction) and measured by Quantity One 1-D Analysis Software (Bio-Rad, Hercules, Calif., USA)."}, "[4]": {"test_system": "β-catenin", "test": "Western blot of nuclear β-catenin in colonic mucosa (Wnt signaling)", "format": "in vivo, FVB mice", "details": "colonic mucosa nuclear fraction, p<0.03", "description": "as §3, §4"}, "[5]": {"test_system": "calprotectin", "test": "Fecal calprotectin by Mouse S100A8/S100A9 Heterodimer DuoSet ELISA", "format": "in vivo, FVB mice", "details": "vs obese control", "description": "as §1, §2"}}}
{"compound": "Cc1ncc(CO)c(CO)c1O.Cl", "note": "[B6, pyridoxine hydrochloride]", "values": [{"measurement": "Plasma IL-6 level (in words)", "setting": "[1]", "value": "non-significant reduction"}, {"measurement": "Tumor incidence", "setting": "[2]; HFD-fed, AOM-treated FVB mice, agent in diet", "value": 59, "unit": "%"}, {"measurement": "Tumor multiplicity (Tumors per mouse)", "setting": "[2]; HFD-fed, AOM-treated FVB mice, agent in diet (CUR 0.2% w/w, B6 24 mg/kg), mean ± SE", "value": "0.95 ± 0.22^ab"}, {"measurement": "Tumor burden (Total volume of tumors per mouse, mm^3)", "setting": "[2]; HFD-fed, AOM-treated FVB mice, agent in diet, mean ± SE", "value": "17.19 ± 7.38^ab mm^3"}, {"measurement": "Suppression of colorectal tumorigenesis (in words)", "setting": "[2]; vs HFD obese control", "value": "neither CUR nor B6 alone was sufficient to suppress colorectal tumorigenesis"}, {"measurement": "Suppression of PI3K activation (in words)", "setting": "[3]", "value": "did not cause a significant suppression"}, {"measurement": "Level of nuclear β-catenin in comparison to the obese control (in words)", "setting": "[4]", "value": "reduced level of nuclear β-catenin"}, {"measurement": "Suppression of fecal calprotectin (in words)", "setting": "[5]", "value": "did not cause a significant suppression"}]}
